Measured values: the supplement of paper PMC10307832

Columns and labels:
Experiment in all cases: relative viability (nuclei count vs DMSO), 5 days (fraction); higher = more cells survive
[1] = compound: C1CNCCC1C2=CC(=NN2)C3=CC=NC=C3
In short: (§1)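 On vehicle-anchored 1536-well plates, lung cancer cell lines held overnight at 37 °C were pinned with five library-drug doses (not always all listed) spaced by √10. With no medium change over 5 days, they were then fixed, permeabilised and Hoechst-stained in one step and imaged at 4×. MetaXpress counted nuclei, and viability is the median across plates of treated-well over vehicle-well nuclei. Acceptance needed control CV below 25% and at least one doubling.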

[2] = compound: C[C@@H](N)c1ccc(C(=O)Nc2ccnc3[nH]ccc23)cc1
In short: as §1

Tanzisertib = compound: O[C@H]1CC[C@H](Nc2ncc3nc(Nc4c(F)cc(F)cc4F)n([C@H]4CCOC4)c3n2)CC1 [Tanzisertib]
In short: as §1

[3] = compound: C[C@@H](N)c1ccc(C(=O)Nc2ccnc3[nH]ccc23)cc1 + C[C@@H](Oc1cc(-c2cnn(C3CCNCC3)c2)cnc1N)c1c(Cl)ccc(F)c1Cl [Crizotinib] (partner 1 µM)
In short: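 For relative viability, nuclei counts in treated wells were divided by those in vehicle wells. Lung cancer cell lines had been pin-tool dosed in 1536-well plates the day after seeding and cultured for 5 days, then fixed and stained in one step (final 0.05% Triton X-100, 1% formaldehyde, 1 ug/ml Hoechst) and imaged at 4×. Doses were one drug alone or a fixed anchor-drug dose plus five library-drug doses (not always all listed) in √10 steps, and values are duplicate-plate medians.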

Row | Cell Line | relative viability ([1]; 0.08 µM) | relative viability ([1]; 0.8 µM) | relative viability ([1]; 2.53 µM) | relative viability ([1]; 8 µM) | relative viability ([2]; 0.04 µM) | relative viability ([2]; 0.1265 µM) | relative viability ([2]; 0.4 µM) | relative viability ([2]; 1.265 µM) | relative viability ([2]; 4 µM) | relative viability (Tanzisertib; 0.08 µM) | relative viability (Tanzisertib; 0.253 µM) | relative viability (Tanzisertib; 0.8 µM) | relative viability (Tanzisertib; 2.53 µM) | relative viability (Tanzisertib; 8 µM) | relative viability ([3]; first compound 0.04 µM) | relative viability ([3]; first compound 0.1265 µM) | relative viability ([3]; first compound 0.4 µM) | relative viability ([3]; first compound 1.265 µM) | relative viability ([3]; first compound 4 µM)
1 | NCI-H3122 | 0.978 | 1.03 | 1.02 | 0.988 | 0.997 | 1.04 | 0.975 | 1 | 0.894 | 1.02 | 0.964 | 1.03 | 1 | 0.936 | 0.286 | 0.295 | 0.264 | 0.346 | 0.303
2 | PC-3 [JPC-3] | 1.02 | 1 | 1.08 | 1.03 | 0.986 | 1.04 | 0.997 | 0.949 | 0.884 | 1.02 | 1.06 | 1.11 | 0.983 | 0.871 | 0.969 | 0.931 | 1.01 | 1.1 | 0.917
3 | PC-14 | 1.01 | 1.06 | 1.13 | 0.987 | 0.906 | 0.979 | 0.995 | 0.707 | 0.779 | 1.06 | 1.07 | 0.996 | 0.984 | 0.546 | 0.846 | 0.871 | 0.921 | 0.8 | 0.657
4 | RERF-LC-KJ | 0.868 | 1.01 | 1.03 | 0.943 | 1.02 | 1.01 | 1.16 | 1.08 | 1.02 | 1.13 | 1 | 1.01 | 0.972 | 0.87 | 0.808 | 0.893 | 0.788 | 0.858 | 0.684
5 | SK-LU-1 | 1.04 | 0.972 | 1.2 | 1.02 | 0.986 | 1.04 | 1 | 0.886 | 0.833 | 1.19 | 1.05 | 1.02 | 1.1 | 1.01 | 0.926 | 0.964 | 0.779 | 0.757 | 0.5
6 | SK-MES-1 | 1.03 | 0.925 | 1.05 | 0.999 | 0.987 | 0.969 | 1 | 0.878 | 0.82 | 1.08 | 0.984 | 0.975 | 0.992 | 0.808 | 1.01 | 0.973 | 0.94 | 0.798 | 0.757
7 | SW 1573 | 0.709 | 1.06 | 1.15 | 1.09 | 1.13 | 1.04 | 1.08 | 0.966 | 0.803 | 1.14 | 0.938 | 1 | 1.01 | 0.909 | 0.792 | 0.816 | 0.777 | 0.65 | 0.765
